Patent publication US11337449B2, “Compositions and their use” (NESTEC S.A., priority 2015, dated 2022)

How the values were obtained:
[1] = system: neural progenitor cell (NPCs) from E14 mouse neocortex; assay: Neurosphere counts in 96-well plates; type: cell-based; conditions: Low (Dose 1: 10 nM); cells grown 2 days
Description: Generation of neural progenitor cell (NPCs) libraries:
E14 pup brains were harvested and placed in ice cold DPBS(1×)+10% Pen/Strep, then they were dissected using a dissecting microscope. From each pup, one brain hemisphere was placed in 2 ml of Neurobasal media/10% P/S/10× Hepes and another brain hemisphere was placed in another tube.
The tissue from each tube was aseptically and manually dissociate into single cells, neurobasal complete medium was added and centrifuged at 130G for 5 min. The tissue was then re-suspended in neurobasal complete media with GF and placed in a corning suspension culture dish 100 mm×20 mm (#430591). Cells were passage twice using a 1:3 ratio, after what they were centrifuged (130 g 5 min), resuspended in freezing media (10% DMSO and neurobasal complete media, no GF) and frozen in liquid nitrogen (LN2).
Plating Cells in 96-Well Plates for Neurosphere Counts and Diameters Only
3-4 mLs of cells were taken out of the tilted plate and add to a 15 ml conical. Some of the remaining media was used to rinse down the plate. All remaining media was drawn up and put into a 15 ml conical tube, and Spun at 130G for 5 min. All media was removed. […]
1. […] Imaging was carried out using a GE Cytell imager or LSM 710, Zeiss confocal microscope and the diameters of neurospheres with ImageJ software (National Institutes of Health) was analysed.

[2] = system: neural progenitor cell (NPCs) from E14 mouse neocortex; assay: Monolayer culture NPC proliferation assay (EdU incorporation / DAPI); type: cell-based; conditions: lowSM (Dose 1: 10 nM); 3 days culture
Description: Monolayer Culture NPC Proliferation Assay (Incorporation of EdU—S Phase Marker)
After 24 h, it was ensured that cells had attached to the plate then the medium was carefully removed. 500 μL of compound media plus GF. was added. The cells were cultured for 3 days in appropriate media.
Control and compound media was made with #2 media and contains 29 uM Choline, Low (5 uM) and medium (70 uM) choline media was made with #3 media.
EDU incorporation was measured using Click-IT® EdU Alexa Fluor® 555 Imaging Kit (Life technologies, #c10338).
At the end of day 3 EdU was added to each well at 10 μM for 30 minutes prior to fixation.
For fixation and subsequent immunohistochemical analysis, the medium was removed, the cells were rinsed once with 1×PBS for 5 min, and fixed with 4% PFA in 1×PBS for 15 min at 4° C., then the cells were washed twice with 1×PBS for 5 min, left in 1×PBS, wrapped in foil and leave overnight at 4° C., or staining was proceeded with.
PBS was removed and enough AB staining solution (1% Goat serum, 1×PBS, and 0.1% triton X) added to cover the bottom, the block was kept at room temp for 1 hour. The cells were stained for EDU. The cells were Incubated for 30 min at room temp, in the dark. The cells were washed with 1×PBS and stained with Dapi 1:5000 ul for 15 min. […]

[3] = system: brain myelination (myelin water fraction); assay: Cross-sectional correlation of infant formula nutrient content with brain myelination (myelin water fraction, mcDESPOT MRI); type: in vivo, human; conditions: children up to 5 years fed infant formulas
Description: MRI (Magnetic Resonance Imaging): MRI brain scans of infants and children between 0 and 5 years were acquired using a white matter imaging technique. This technique provides a quantitative measure, the Myelin Water Fraction (MWF), which is a surrogate marker of myelin content in the brain. When mapped as a function of time across early childhood, myelination trajectories can be generated.
Infant formula composition: six infant formulas fed to infants participating in a study were analyzed for their composition/level of myelin-relevant nutrients.
Each infant was scanned using the mcDESPOT (multicomponent Driven Equilibrium Single Pulse Observation of T1 and T2) white matter imaging technique Deoni et al. (Magn. Reson. Med. 2008, 60:1372-1387), which provides a quantitative measure of the myelin water fraction (MWF)—a measure of myelin content—at each point throughout the brain. All infants were scanned during natural (i.e. non-sedated) sleep using acoustically-muffled mcDESPOT imaging protocols. Total imaging times ranged from 19 minutes for the youngest toddlers to 24 minutes for the older 4 year-old children.
Following image alignment, non-brain signal removal, and correction for main and transmit magnetic field (B0 and B1) inhomogeneities, a three-pool signal model (comprising the myelin-associated water; intra-extra axonal water; and a non-exchanging free-water pool) was fit to the mcDESPOT data to derive voxel-wise MWF maps.
Each child's map was then non-linearly aligned to a study specific template. White matter masks, corresponding to 5 bilateral regions (frontal, temporal, occipital, parietal, and cerebellar WM) as well as the body, genu, and splenium of the corpus callosum were created from common databases, registered to the common template, and superimposed onto each child's MWF map. Mean values for each region were then determined for each child and used for subsequent developmental analysis and trajectory modeling.
From the cohort described above, children up to 5 years of age that were fed different infant formulas during infancy were included in a large correlation analysis to examine the relationship between formula nutrient composition and brain myelination. The 6 most frequently used formulas in that cohort were analyzed for their nutritional composition. A single general linear model (GLM) was constructed that modeled all quantified nutrients and child age.
Spearman rank correlations were then calculated between the nutrient content and myelin content value (adjusted for child age) at each image voxel, or point within the brain. Significance was defined as p<0.05 corrected for type 1 error using a cluster based correction approach. An association or trend was defined as p<0.15. […] To reduce the number of nutritional components in the model, we examined the inter-nutritional correlation. Using a conservative threshold of 0.9, we excluded nutritional components that were highly correlated with each other across the various formulas.

Sphingomyelin
number of neurospheres, Average (Mean) [1]: 94 | neuronal proliferation (DAPI) [2]: 280 | association of nutrient with myelination (myelin water fraction) over time in the brain [3]: an association with myelination (myelin water fraction) was observed over time in the brain
